Measurements published in patent US11059843B2, “Stevioside M crystal form, preparation method therefor and use thereof” (ZHUCHENG HAOTIAN PHARM CO., LTD., priority 2017, dated 2021).

Assays:
[1] = Dynamic moisture adsorption (DVS) hygroscopicity; assay type: physicochemical; settings: for hygroscopic mass change (0%-40% RH) / hygroscopicity: water absorption at 40% RH / hygroscopic mass change (40%-80% RH) / hygroscopicity: water absorption at 80% RH: DVS, 25° C.
Experimental: DVS analysis: It was measured using DVS Intrinsic type dynamic moisture adsorption instrument from British SMS instrument company, measuring temperature: 25° C.; relative humidity: 0-95%.

[2] = Crystal form stability by XRPD after drying at 105° C. for one day; assay type: physicochemical
Experimental: (§1) X-ray powder diffraction analysis (XRPD), differential scanning calorimetry analysis (DSC), thermogravimetric analysis (TG), dynamic moisture adsorption analysis (DVS) and the like were made for the crystal form A of stevioside M prepared in the above examples. XRPD analysis: It was tested at room temperature using a Bruker D8 advance type diffractometer from Bruker Instruments, Germany, Cu-Kα ray (λ=1.5418 Å) was used, the 2θ angle was scanned from 3 to 40 degrees, and the scanning speed was 0.2 degrees/second.
The crystal form A of stevioside M prepared in the above examples was subjected to XRPD analysis after drying at 105° C. for one day, and the analysis results are shown in FIG. 7. It can be seen from FIG. 7 that the crystal form is unchanged, and the crystal form has good stability under high temperature conditions. The crystal form B of stevioside M is extremely unstable under high temperature conditions, and which is amorphous after drying for one day at 105° C., and the analysis results are shown in FIG. 8.

[3] = Water solubility / powder dissolution profile; assay type: physicochemical
Experimental: The crystal form A of stevioside M prepared in the above examples has good reproducibility and is stable in water solubility, and has a maximum solubility of about 3 mg/mL, and the equilibrium solubility is about 2 mg/mL at 24 hours. The powder dissolution profiles of the two batches of crystal form A of stevioside M prepared by the examples are shown in FIG. 11. The water solubility of crystal form A is similar to that of the stevioside D-stevioside M amorphous composition (about 3 mg/mL) disclosed in Patent CN 105722533 A, and both of which can stably increase the water solubility by 2-3 times.

[4] = Chemical stability by HPLC after storage at 40° C. and RH 75% for half a year; assay type: physicochemical
Experimental: HPLC analysis: It was determined using a 1260 infinity liquid chromatograph from Agilent Technologies, Inc., USA. Sample solution preparation method: 25-50 mg of stevioside M sample was accurately weighed, and added into a 25 ml volumetric flask, then water-acetonitrile (7:3, v/v) solution was added, dissolved to volume. Preparation method of sodium phosphate buffer (specification: 10 mmol/L, pH: 2.6): dissolving 2.76 g of sodium dihydrogen phosphate into 2 liters of water, adding phosphoric acid, and the pH was adjusted to 2.6. Chromatographic column: Luna 5μ C18(2) 100 A column from Phenomenex. Injection volume: 5 μl. Flow rate: 1.0 mL/min. Column temperature: 40° C. Detector: UV detection at 210 nm. The elution gradient is shown as follows: […]

[5] = Physical stability of crystal form on storage at 25° C. and RH 60% for half a year (XRPD); assay type: physicochemical
Experimental: as §1
The crystal form A of stevioside M prepared in the above examples was stored at 25° C. and RH 60% for half a year, and the analysis results are shown in FIG. 9.

[6] = water at room temperature, stevioside M content of 75% to 90%; cited from earlier work

hygroscopic mass change (0%-40% RH) [1] [%] | hygroscopicity: water absorption at 40% RH [1] | hygroscopic mass change (40%-80% RH) ([1]; 40%-80% RH) [%] | hygroscopicity: water absorption at 80% RH [1] | crystal form after drying (XRPD) [2] | hygroscopicity compared with the amorphous form and crystal form B ([1]; 25° C. and 40% RH) | hygroscopicity compared with amorphism under normal storage ([1]; 40%-80% RH) | mass percentage of moisture absorption within a relative humidity of 0-40% ([1]; dynamic moisture adsorption profile FIG. 4, RH 0-40%) | mass percentage of moisture absorption within a relative humidity of 40-80% ([1]; dynamic moisture adsorption profile FIG. 4, RH 40-80%) | equilibrium solubility in water ([3]; at 24 hours) | maximum solubility in water ([3]; powder dissolution) | reduction of content (HPLC) after storage [4] | crystal form after storage (XRPD) [5] | Structure (SMILES) | solubility in water [6]
11.0 | 40% RH, 11.0% of | 8.2 | 80% RH, 19.2% of |  |  |  |  |  |  |  |  |  | C=C1C[C@@]23CCC4[C@](C)(C(=O)OC5OC(CO)C(O)C(OC6OC(CO)C(O)C(O)C6O)C5OC5OC(CO)C(O)C(O)C5O)CCC[C@@]4(C)[C@@H]2CCC1(OC1OC(CO)C(O)C(OC2OC(CO)C(O)C(O)C2O)C1OC1OC(CO)C(O)C(O)C1O)C3 (stereo partly drawn) [amorphism of stevioside M, 13-[(2-O-β-D-pyranoglucosyl-3-O-β-D-pyranoglucosyl-β-D-pyranoglucosyl)oxyl]-ent-kauran-16-en-19-oic acid-[(2-O-β-D-pyranoglucosyl-3-O-β-D-pyranoglucosyl-β-D-pyranoglucosyl) ester], reference compound] | 
9.4 | 40% RH, 9.4% of | 4.6 | 80% RH, 14.0% of | unchanged | significantly less hygroscopic | less hygroscopic than amorphism | 0-9.4% | 9.4-14.0% | about 2 mg/mL | about 3 mg/mL | less than 0.2% | unchanged | C=C1C[C@@]23CCC4[C@](C)(C(=O)OC5OC(CO)C(O)C(OC6OC(CO)C(O)C(O)C6O)C5OC5OC(CO)C(O)C(O)C5O)CCC[C@@]4(C)[C@@H]2CCC1(OC1OC(CO)C(O)C(OC2OC(CO)C(O)C(O)C2O)C1OC1OC(CO)C(O)C(O)C1O)C3 (stereo partly drawn) [crystal form A of stevioside M, 13-[(2-O-β-D-pyranoglucosyl-3-O-β-D-pyranoglucosyl-β-D-pyranoglucosyl)oxyl]-ent-kauran-16-en-19-oic acid-[(2-O-β-D-pyranoglucosyl-3-O-β-D-pyranoglucosyl-β-D-pyranoglucosyl) ester]] | 
15.3 | 40% RH, 15.3% of | 2.1 | 80% RH, 17.4% of | amorphous |  |  |  |  |  |  |  |  | C=C1C[C@@]23CCC4[C@](C)(C(=O)OC5OC(CO)C(O)C(OC6OC(CO)C(O)C(O)C6O)C5OC5OC(CO)C(O)C(O)C5O)CCC[C@@]4(C)[C@@H]2CCC1(OC1OC(CO)C(O)C(OC2OC(CO)C(O)C(O)C2O)C1OC1OC(CO)C(O)C(O)C1O)C3 (stereo partly drawn) [crystal form B of stevioside M, 13-[(2-O-β-D-pyranoglucosyl-3-O-β-D-pyranoglucosyl-β-D-pyranoglucosyl)oxyl]-ent-kauran-16-en-19-oic acid-[(2-O-β-D-pyranoglucosyl-3-O-β-D-pyranoglucosyl-β-D-pyranoglucosyl) ester]] | 
 |  |  |  |  |  |  |  |  |  |  |  |  | C=C1C[C@@]23CCC4[C@](C)(C(=O)OC5OC(CO)C(O)C(OC6OC(CO)C(O)C(O)C6O)C5OC5OC(CO)C(O)C(O)C5O)CCC[C@@]4(C)[C@@H]2CCC1(OC1OC(CO)C(O)C(OC2OC(CO)C(O)C(O)C2O)C1OC1OC(CO)C(O)C(O)C1O)C3 (stereo partly drawn) [stevioside M, 13-[(2-O-β-D-pyranoglucosyl-3-O-β-D-pyranoglucosyl-β-D-pyranoglucosyl)oxyl]-ent-kauran-16-en-19-oic acid-[(2-O-β-D-pyranoglucosyl-3-O-β-D-pyranoglucosyl-β-D-pyranoglucosyl) ester]] | 0.1% to 0.15
